Reference: patent US4151041A, “Process for production of maltopentaose and maltohexaose” (Meiji Seika Kaisha, Ltd., priority 1976, dated 1979)

Assays:
[1] = tested on: Klebsiella pneumoniae; assay: paper disc-plate method, combination with SF-1130-x1 substance; assay type: cell-based; settings: in combination with SF-1130-x1, Klebsiella pneumoniae
[2] = solubility; assay type: physicochemical
[3] = in vitro antimicrobial / antibacterial activity (general statement); assay type: cell-based; settings: for in vitro antimicrobial activity: in themselves
[4] = tested on: test microorganism; assay: paper disc-plate method, test microorganisms in general; assay type: cell-based; settings: for effect on antibacterial activity of the SF-1130-x2 substance: 1.25 mg/cc in upper plate layer, with SF-1130-x2; for antibacterial activity in themselves: alone, under the Table 4 testing conditions; for effect on antibacterial activity of the SF-1130-x1 substance: in combination with SF-1130-x1; for effect on antibacterial activity of the SF-1130-x substance: with SF-1130-x substance
Method: The test was conducted by a conventional paper disc-plate method. Thus, the SF-1130-x2 substance was dissolved in distilled water at a concentration of 1 mg/cc or 2 mg/cc, and with the test solutions so prepared were impregnated paper discs made of filter paper 8 mm in diameter which were subsequently air-dried. These paper discs were placed on an upper plate layer of the known mycin-assay incubation medium comprising 0.5% peptone, 0.3% meat extract and 1.5% agar (pH 6) which contained the test microorganism to be incubated therein and which was laid over the lower layer of agar medium in the assaying dish. The incubation was made at a temperature of 37° C. overnight, and subsequently the diameters of the inhibition zones formed around the paper discs were measured. These tests were repeated in the same manner as above but with the additional incorporation of 1.25 mg/cc of maltopentaose or maltohexaose into the upper plate layer of the micin-assay incubation medium. […] Control testing was also conducted in which the antibacterial potency of the SF-1130-x2 substance alone was estimated in the absence of maltopentaose or maltohexaose.

[5] = tested on: mice infected with ascites tumor of "Sarcoma 180"; assay: cellular immunity test according to the delayed skin reaction technique; assay type: in vivo, ICR-JCL mice (male); settings: for adjuvant effect on immuno-potentiating activity of SF-1130-x substance: with SF-1130-x substance
Method: The test was carried out by the following procedure: A group of ICR-JCL mice (male) having an average body weight of 31.58±4g (8 weeks old) (six mice per group) were inoculated with ascites tumor of "Sarcoma 180". 24 hours after the inoculation of the tumor cells, each of the drug samples to be tested was subcutaneously administered once into the mice. Two days after the inoculation an ethanolic solution of 5% picryl chloride was applied to the hair-shaved abdomens of mice to establish the sensitization. Subsequently, each drug sample under test was subcutaneously administered once a day for four successive days. Nine days after the inoculation, a solution of 1% picryl chloride in olive oil was applied to the two sides of both ears of mice to establish the secondary sensitization. 24 hours after the secondary sensitization, the degree (%) of increase in thickness of the ears was evaluated for the test mice. The extent of the delayed skin reaction can be assessed from the percentage increase.

[6] = tested on: Staphylococcus aureus Smith S-424; assay: host-defense stimulation in JCL-ICR mice against bacterial infection (survival, LD50 of bacteria); assay type: in vivo; settings: living animals
Method: The test was conducted as follows: The crude, yellowish brown powder obtained in Example 1 was reprecipitated from water-ethanol and the reprecipitate was dissolved in a phosphate-buffered saline at ph 7.2. The resultant solution containing a mixture of maltopentaose and maltohexaose was intraperitoneally administered into a group of JCL-ICR mice (male) having an average body weight of 20g (4 weeks old) (eight mice per group) at a dosage of 100 mg/kg body or 20 mg/kg body. The administration was effected three times at an interval of 48 hours.
72 hours after the final administration, the mice were intraperitoneally inoculated with 0.5 ml/mouse of a cell dispersion of Staphylococcus aureus Smith S-424 strain which had been prepared by dilution of the incubated culture with physiological saline solution followed by addition of 5% mucin. The number of the mice that survived was counted during five days after the inoculation and the LD50 value of the bacterial cells (the number of the bacterial cells necessary to kill 50% of mice) calculated in each case. Control testing was also conducted where the treatment with the mixture of maltopentaose and maltohexaose was omitted.

OC[C@H]1O[C@H](O[C@H]2[C@H](O)[C@@H](O)[C@@H](O[C@H]3[C@H](O)[C@@H](O)[C@@H](O[C@H]4[C@H](O)[C@@H](O)[C@@H](O[C@H]5[C@H](O)[C@@H](O)[C@@H](O[C@H]6[C@H](O)[C@@H](O)C(O)O[C@@H]6CO)O[C@@H]5CO)O[C@@H]4CO)O[C@@H]3CO)O[C@@H]2CO)[C@H](O)[C@@H](O)[C@@H]1O (some centres unmarked) [maltohexaose]
effect on antibacterial activity of the SF-1130-x1 substance [1]: improvement in the antibacterial activity is not observed
solubility in acetone [2]: insoluble
solubility in ethanol [2]: insoluble
solubility in water [2]: readily soluble
in vitro antibacterial activity [3]: no in vitro antibacterial activity
in vitro antimicrobial activity [3]: no in vitro antimicrobial activity
effect on antibacterial activity of the SF-1130-x2 substance [4]: improves the antibacterial activity
antibacterial activity in themselves [4]: no antibacterial activity
effect on antibacterial activity of the SF-1130-x1 substance [4]: generally improves the antibacterial activity
effect on antibacterial activity of the SF-1130-x substance [4]: improving the antibacterial activity
Degree of increase in thickness (ears) ([5]; 200 mg/kg body, subcutaneous): 4.7 ± 0.988 ×10^ -3 cm
Percentage increase ([5]; 200 mg/kg body, subcutaneous, Control = 100.0): 87.0%
adjuvant effect on immuno-potentiating activity of SF-1130-x substance [5]: adjuvant effect of increasing the immuno-potentiating activity
effect on host-defense system against bacterial infection [6]: may stimulate the host-defense system

OC[C@H]1O[C@H](O[C@H]2[C@H](O)[C@@H](O)[C@@H](O[C@H]3[C@H](O)[C@@H](O)[C@@H](O[C@H]4[C@H](O)[C@@H](O)[C@@H](O[C@H]5[C@H](O)[C@@H](O)C(O)O[C@@H]5CO)O[C@@H]4CO)O[C@@H]3CO)O[C@@H]2CO)[C@H](O)[C@@H](O)[C@@H]1O (some centres unmarked) [maltopentaose]
effect on antibacterial activity of the SF-1130-x1 substance [1]: improvement in the antibacterial activity is not observed
solubility in acetone [2]: insoluble
solubility in ethanol [2]: insoluble
solubility in water [2]: readily soluble
in vitro antibacterial activity [3]: no in vitro antibacterial activity
in vitro antimicrobial activity [3]: no in vitro antimicrobial activity
effect on antibacterial activity of the SF-1130-x2 substance [4]: improves the antibacterial activity
antibacterial activity in themselves [4]: no antibacterial activity
effect on antibacterial activity of the SF-1130-x1 substance [4]: generally improves the antibacterial activity
effect on antibacterial activity of the SF-1130-x substance [4]: improving the antibacterial activity
adjuvant effect on immuno-potentiating activity of SF-1130-x substance [5]: adjuvant effect of increasing the immuno-potentiating activity
effect on host-defense system against bacterial infection [6]: may stimulate the host-defense system
